How the values were obtained:
Assay type in all cases: cell-based
[1] = system: human keratinocytes; experiment: DNA synthesis in keratinocytes (3H-thymidine incorporation, keratinocyte proliferation)
Source text: The incorporation of ^3 H-thymidine by cultured keratinocytes was used as an assay of keratinocyte proliferation. Thymidine is one of four deoxynucleosides which are the monomeric units of DNA, the universal library of genetic information in the animal kingdom. Prior to cell division of a somatic cell such as a keratinocyte, the complete genome of the cell undergoing cell division is replicated. This involves large scale DNA synthesis by the cell and enables both daughter cells to receive identical copies of the genetic material. When ^3 H-thymidine is included in the culture media of keratinocytes which are synthesizing DNA in preparation for cell division then the labelled nucleoside is incorporated into the newly synthesized DNA. The extent of incorporation of ^3 H-thymidine into a population of cells is proportional to the rate of DNA synthesis by this population of cells and therefore an indication of their cellular proliferation.
1. Normal human keratinocytes isolated from neonatal foreskins by trypsin treatment were grown in DME medium/5% fetal calf serum in the presence of mitomycin C treated 3T3 mouse fibroblasts for establishing dividing keratinocyte colonies. Keratinocytes were grown under the above condition until their third passage.
2. For the experiments, third passage keratinocytes were plated into a serum-free keratinocyte growth medium (KGM; obtained from Clonetics, San Diego, Calif.) containing 0.09 mM calcium. 20,000 to 30,000 cells were plated into each well of 24 well cell culture plates and grown for 5 days, until the cells reach about 80% confluence.
3. Medium was changed to fresh medium and the various test materials were added to the medium from an ethanolic stock solution. The final ethanol concentration in the cultures was kept below 0.2%. Control cultures received no tested material but were dosed with 0.2% ethanol. Each compound or combination was tested in three separate wells. In four hours, 1 uCi of ^3 H-thymidine (Amersham Corp., Sp activity 40 Ci/mmol) was added to the 1 ml medium in each well. The cells were incubated overnight and 24 hours later the amount of ^3 H-thymidine associated with the cellular DNA of keratinocytes was assessed as described below.
4. The medium was aspirated, and the wells washed with 1 ml phosphate-buffered saline. The DNA and proteins of the cells in the plate were then precipitated by adding 1 ml of ice-cold 10% trichloroacetic acid (TCA). The plates were left on ice for 30 minutes to complete the precipitation process. TCA was then aspirated and each well was then washed four times with 5% TCA. The plates were then dried on a filter pad and the cells in the wells were dissolved in 0.5 ml of 0.1N sodium hydroxide. The sodium hydroxide was then neutralized using 0.1N hydrochloric acid and the solution (1 ml total volume) was then transferred to a scintillation vial. 50 μl samples from each vial were used for protein assay using BCA protein assay reagent obtained from Pierce Chemical Company. 8 ml of a scintillation fluid (Ecolume) was added to the rest of the solution in the vial, and the vials were counted in a scintillation counter to determine the amount of radioactivity in each vial. The DNA synthesis rate was then calculated as cpm ^3 H thymidine incorporated into total cellular DNA/microgram of cell protein for each individual well.

[2] = system: human keratinocytes; experiment: Cornified envelope (CE) formation, marker of terminal differentiation of keratinocytes
Method: (§1) Human keratinocytes, isolated from neonatal foreskin by trypsin treatment were grown in Dulbecco Modification Eagle (DME) Hams F12 (3:1) medium/5% fetal calf serum in the presence of mitomycin C treated 3T3 mouse fibroblasts for establishing dividing keratinocyte colonies. Cells were grown under the above condition until their second passage and kept frozen for future use. Frozen second passage keratinocytes were thawed and plated into the above medium and grown for five days. On day 5, when the cells were 70-80% confluent, they were trypsinized and plated in the serum-free medium for the various experiments.
During the process of terminal differentiation in the epidermis, a 15 nm thick layer of protein, known as the cornified envelope (CE)is formed on the inner surface of the cell periphery. The CE is composed of numerous distinct proteins which have been cross-linked together by the formation of N ^ε -(-γ-glutamyl) lysine isodipeptide bonds catalyzed by the action of at least two different transglutaminases expressed in the epidermis. Transglutaminase (TG-1) is expressed in abundance in the differentiated layers of the epidermis, especially the granular layer, but is absent in the undifferentiated basal epidermis. Thus, TG-1 is a useful marker of epidermal keratinocyte differentiation with high TG-1 levels indicating a more differentiated state. An ELISA based TG-1 assay, using a TG-1 antibody, was used to assess the state of differentiation of the cultured keratinocytes in the examples that follow.
Proper skin conditioning require enhanced proliferation and differentiation of epidermal keratinocytes. The different citrate esters were tested on their effect on cornified envelope (CE) formation, a marker of terminal differentiation of keratinocytes. Citrate esters were tested at 1 mM levels in medium containing 0.15 mM Ca. Levels are expressed as % of control ±SD. The CE formation for the control was 54.48 ±31.8 cpm/μg cell protein.

[3] = system: human keratinocytes; experiment: 3H choline incorporation into phospholipids of keratinocytes
Method: as §1
Choline acts as an essential nutrient for the cellular phospholipid biosynthesis of keratinocytes. Choline present in the medium is used up by the cells for phospholipid biosynthesis. If TCC provides choline for the cells it will complete with the choline in the medium for incorporation into cellular phospholipids. When cells are incubated with ^3 H-labelled choline, its incorporation into phospholipids will be decreased by the presence of unlabelled choline or TCC in the medium.
[…] The wells were washed, total lipids were extracted using Bleigh Dyer method as described above and the total counts in the chloroform phase was determined. To ascertain that the counts are present only in the phospholipid fraction, the amount of ^3 H choline incorporated into the different lipid fractions were quantitated by running TLC of the fractions in the above solvent system, and the amount of radioactivity in the phospholipid fraction (origin) was quantitated using BioScan plate reader. The cpm of ^3 H choline was plotted against the amount of cold choline or TCC added in the medium to assess the competition between choline supplied from TCC with ^3 H choline.
The amount of ^3 H choline incorporated into cellular phospholipids was determined and expressed as % of controls.

[4] = Homo sapiens, Keratinocyte, 24 h, read-out: Rate of DNA synthesis
[5] = Homo sapiens, Keratinocyte, 48 h, read-out: 3H choline incorporated into cellular phospholipids

O=C(O)CC(O)(CC(=O)O)C(=O)O [Citric acid, citric acid]
activity at 0.1 µM [1, 4]: 88.4 ± 15.5%
activity at 1 µM [1, 4]: 74.5 ± 32.2%
activity at 10 µM [1, 4]: 89.9 ± 20.3%
activity at 100 µM [1, 4]: 88.7 ± 5.1%
activity at 1000 µM [1, 4]: 63.9 ± 11.8%
activity at 10000 µM [1, 4]: 4.25 ± 2.2%
keratinocyte proliferation, result in words ([1]; summary in Example 2): inhibit both proliferation and differentiation of keratinocytes
cornified envelope formation / keratinocyte differentiation, result in words ([2]; 1 mM, 0.15 mM Ca): inhibited cornified envelope formation significantly
activity at 1000 µM ([2]; Homo sapiens, Keratinocyte, read-out: CE Levels): 13.7 ± 1.1%
keratinocyte differentiation, result in words ([2]; summary of Example 2): inhibit both proliferation and differentiation of keratinocytes
choline incorporation into phospholipid fraction, result in words ([3]; 48 hours): no significant effect on choline incorporation into phospholipid fraction
activity at 10 µM [3, 5]: 91.4 ± 12.7%
activity at 100 µM [3, 5]: 77.5 ± 19.5%
activity at 1000 µM [3, 5]: 74.1 ± 28.8%

— patent US5571518A, “Cosmetic compositions containing tricholine citrate” (priority 1995, dated 1996)
